Results on 5 molecules are retold here after patent EP0614464B1, “PEPTIDES AND ANTIBODIES FOR TREATMENT OF RHEUMATOID ARTHRITIS” (PEPTIDE THERAPEUTICS LIMITED, priority 1991, dated 1993).

Assay [1] concerns IgA-α1AT complex. The experiment in a line: HPLC analysis of in vitro dissociation of purified IgA-α1AT complex. Format: biochemical, human. To be noted: for HPLC minimum: Table 5, minimum concentration giving complex : free IgA ratio at 20% (base-line 14%), 90 minutes at 37°C, >500µM = no complex dissociation at highest concentration tested; for activity: comment in words on Tables 3-5, assay not given, fits the HPLC values. Here is the method: The ability of the peptides of the invention to dissociate purified IgA-α1AT complex in vitro was tested as described below. The anti-rheumatic drug D-penicillamine and other synthetic peptides were used as controls. […] The sample was monitored at wavelength 206nm at a flow rate of 1ml/minute with phosphate buffer (0.1M) pH 7.1. […] They represent the ability of the peptides to dissociate the IgA-α1AT complex in vitro. In these experiments, the base-lines level comprises a complex : free IgA ratio of 14% . The minimum concentration of peptide taken to produce a positive dissociation effect is that which results in a complex: free IgA ratio at 20%. In the results tables, all the peptide values are expressed in µMoles.

Assay [2] deals with mouse macrophage cell line (PU 518). The experiment in a line: Macrophage inhibition assay: IgA-α1AT complex-stimulated release of lysosomal enzymes. Format: cell-based. The procedure:
A mouse macrophage cell line (PU 518) was stimulated to release lysosomal enzymes by the addition of purified human IgA-α1AT complex. The degree to which this release was then inhibited by the peptides or other drugs was investigated, with the degree of inhibition being indicative of activity; the concentration of peptide or other test drugs giving 50% inhibition being recorded. Briefly the method was as follows:
25µl of peptide or drug was double diluted in […] + 10% foetal calf serum (FCS) in a sterile tissue culture 96 well plate. 25µl of IgA-α1AT complex in RPMI 1640 +10% FCS at about 0.2mg/ml was then added to all wells. 50µl of cells at a concentration of 2 x 10^6 cells/ml in RPMI 1640 + 10% FCS was then added to each well.
Control wells of cells alone and cells + IgA-α1AT complex were also prepared. The plate was then gently mixed and incubated overnight (16hr) at 37°C in a 4% CO2 atmosphere. Plates were then centrifuged at 1200 rpm for 10 minutes in a bench top centrifuge.
40µl of supernatant was then taken from each well and added to a 96 well polystyrene assay plate, to which was added 40µl of 160mM acetate buffer (pH 4.3) containing 2mM phenolphthalein-β-D-glucuronic acid. To obtain a standard curve, dilutions of phenolphthalein in acetate buffer from 100-5µg/ml were also added to separate wells in the assay plate.
The plates were then incubated at 37°C for 4 hours before 150µl of 0.2M glycine/NaOH buffer (pH 10.6) containing 0.2M NaCl was added to stop the reaction.
Plates were then shaken for 3 minutes before the optical density at 570nm was read on a plate reader, and the amount of β-D-glucuronic acid released from the cells calculated. The concentration of peptide or drug giving 50% inhibition of release was then noted.
The results for the macrophage inhibition assays are expressed as the concentration needed to prevent 50% release of β-glucoromidase.

For assay [3], the system named is alternative complement (C3) pathway. The experiment in a line: Inhibition of C3-activation: preventing IgA-α1AT complex from activating the alternative complement pathway, rabbit erythrocyte haemolysis read-out. The format is biochemical, human. To be noted: Table 5; minimum concentration needed to prevent C3 activation.
Assay [4] has the same test system. Described as above. The format is biochemical, human. To be noted: Table 5; minimum concentration needed to prevent C3 activation. The procedure: Various peptides were tested for their ability to prevent the IgA-α1AT complex from activating the alternative complement (C3) pathway.
The method of measuring the capacity to activate the alternative complement pathway by the non-immune IgA-α1AT complex and the subsequent inhibition of this activation by anti-rheumatic peptides is described below.
This method was based on the method described by Riches and Stanworth, Immunology Letters, 1980, 1, 363,366, with modification to miniaturise it thus allowing the assay to be carried out on microtitre plates.
The initial observation by Platts-Mills and Ishizaka (J Immunol. (1974) 113, 348,358) that low dilutions of fresh normal human serum, from which calcium had been removed by chelation with 10mM EGTA to block the classical complement pathway, caused greater than 90% haemolysis of unsensitised rabbit erythrocytes when incubated at 37°C was employed in this assay.
The non-immune complex IgA-α1AT had been shown in the past to be the only known soluble complex to activate the alternative pathway complement and […] of the rabbit erythrocytes. This inhibition required biologically active complex.
The buffers solutions required in this assay were (a) Total lysis buffer (1% Triton100 in ultra pure water), (b) Alternative pathway complement fixation diluent (APCFD) which was:- • 83 volumes CFD, DH 7.2 (1 oxoid tablet: 100ml UPW) • 10 volumes 0.1M EGTA pH 7.2 • 7 volumes MgCl2 pH 7.2
Blood was obtained by venipuncture from a healthy human individual. The blood was allowed to clot for 1 hour at room temperature and then stored overnight at 4°C. The serum was removed and stored at -70°C in lml aliquots. For use, the serum was defrosted and 100µl of 0.1m EGTA pH 7.2 and 70µl O.lm MgCl2 pH 7.2 was added.
Rabbit red blood cells (RBC) were obtained by venipuncture of a healthy rabbit and collected into 0.1M citrate buffer pH 6.2. The RBC were washed 3 times in citrate buffer and the cells were stored in this buffer which was changed every week. It was possible to store cells in this way for 3 weeks. Peptides
The peptides were synthesised as described in Example 1 and made up in UPW to lmM. They were kept frozen at -70°C prior to use.
This was prepared as previously described in Example 2. It was kept frozen in small aliquots prior to use.
Using a round bottomed welled flexible microtitre plate 100µl neat serum (with added EGTA and MgCl2) was added to the first wells in duplicate. This was double diluted out, with APCFD to give a volume of 50µl well. 8 test wells (+ duplicates) were sufficient. 8 wells were prepared as a positive control - (100µl 1% Triton/UPW). 8 wells were prepared as a negative control - (100µl APCFD (Blank)).
50µl of APCFD was added to the test wells and 50µl of 1% rabbit RBC was added to all wells. The plate was then incubated at 37°C for 30 minutes and then centrifuged for 10 minutes at 2000 rpm.
75µl of the supernatant was carefully removed and plated onto a flat bottom welled microtitre plate. The plates were then read at 410nm interference, 690nm reference. The zero or blank value was calculated as the mean value of negative control wells and using the mean of the positive control wells, the percentage lysis for serum dilutions was calculated. In future assays the serum dilution in which lysis was approx. 80% of Rb RBC was used. This was usually in the range 1:4 - 1:6 dilution (ie. lml serum : 4ml APCFD - 6ml APCFD).
A 1:1 dilution of IgA-α1AT complex was made with twice concentrated APCFD. 100µl of this 1:1 dilution of complex was added to the first wells in duplicate. This was double diluted out with APCFD to give 50 µl per well. 50µl of the predetermined dilution of serum (see (i) above) was added to each well. Positive and negative control wells as described in (a) above and wells containing serum alone were used as controls. The plates were incubated at 37°C for 30 minutes and then centrifuged at 2000 rpm for 1 minute. […]
This is another data set of the same source.

The mark [5] stands for this setting: Table 5, head prints no unit, b70 says all values of the results tables are in µMoles, concentration needed to prevent 50% release of β-glucoromidase.

For orientation: IC50 means the concentration that gives 50% inhibition. A lower IC50 goes with inhibition by little substance. Take `N[C@@H](CS)C(=O)O` [Cysteine]: the “HPLC minimum” value in assay [1] is recorded as 250 µM. The molecule also gave an IC50 in assay [2] (setting [5]) of 500 µM. For the same molecule, the “C' minimum” value in assay [3] was found to be 16 µM.

`CC(C)(S)[C@@H](N)C(=O)O` [D-Penicillamine]: in assay [1], the “HPLC minimum” value was determined as 250 µM. For the same molecule, in assay [2] (setting [5]), half-maximal inhibition (IC50) was put at 500 µM. Also, the “C' minimum” value in assay [3] turned out to be 31 µM.

Take `N[C@@H](CCC(=O)N[C@@H](CS)C(=O)NCC(=O)O)C(=O)O` [Glutathione]: in assay [1], the “HPLC minimum” value is on record as 500 µM and the activity result was “relatively inactive”. For the same molecule, the “C' minimum” value in assay [3] was found to be 31 µM.

On to `CC(=O)N[C@@H](CS)C(=O)O` [N-acetyl Cysteine], for which, in assay [1], the “HPLC minimum” value is given as 500 µM and the activity result is “relatively inactive”. Moreover, the “C' minimum” value in assay [3] was determined as 4 µM.

As for “Substance P [Peptide 36, reference compound]”, the “HPLC minimum” value in assay [1] was >500 µM. In addition, the IC50 in assay [2] (Table 5; head prints no unit, b70 says all values of the results tables are in µMoles; concentration needed to prevent 50% release of β-glucoromidase) is > 500 µM. Moreover, the “C' minimum” value in assay [4] is >500 µM.
